Eight compounds from publication PMC4431585, “Identification and Characterization of a Small-Molecule Inhibitor of Death-Associated Protein Kinase 1” (Chembiochem, 2014) can be followed below.

Test [1] addresses T1, DAPK1 (Homo sapiens, UniProt P53355).
T1 construct: First the catalytic domain of DAPK1 (residues 1–285) was cloned,[14] expressed in Escherichia coli, and purified; made in house; host or cells: Escherichia coli
The experiment in a line: In vitro phosphorylation assay with DAPK1 (analytical HPLC). In kind it is biochemical. The note with it: for phosphorylation by DAPK1 (peptide as substrate): peptide 50 μM, ATP 100 μM, n=3. The source says:
CaMKII and DAPK1 share a number of notable structural and functional properties. In particular both kinases harbor a calmodulin-binding sequence and an autoregulatory domain (ARD) next to the catalytic domain and are therefore regulated by calmodulin (or proteins with calmodulin-like domains).[10] There are also notable differences between the two kinases, for example DAPK1 is active only in its non-phosphorylated form,[11] whereas activation of CaMKII is more complex.[12] […] Thus it is proposed that phosphorylation of Ser1303 and co-localization are responsible for the regulation of calcium influx by NMDA receptors (Figure 1). To investigate the mechanistic details of DAPK1/NMDA receptor interactions further, including differences between GluN2A and GluN2B, we used in vitro phosphorylation assays. First the catalytic domain of DAPK1 (residues 1–285) was cloned,[14] expressed in Escherichia coli, and purified; the reference substrate Peptide38[2d] ([…]) and the 13-mer peptide N2B13 (1, GluN2B1292–1304, […]; Figure 2 A) were prepared. […] Thus, clearly Ser1303 in 1 is not phosphorylated by DAPK1 in vitro.
(§1) Figure 2 Comparison of peptide substrates containing Ser1303 (GluN2B) or Ser1291 (GluN2A). A) Alignment of peptides used in in vitro phosphorylation studies. B) Phosphorylation by DAPK1. C) Phosphorylation by CaMKII. Control substrates are shown with dashed lines. Degrees of phosphorylation were assessed by analytical HPLC (n=3, mean±SD). Concentration: peptide 50 μM, ATP 100 μM, kinase concentration was adjusted to fit the timescale. For further details see the Supporting Information.
(§2) This prompted us to examine related peptides derived from GluN2B and GluN2A (Figure 2 A) and we compared in vitro phosphorylation of these peptides by using both recombinant DAPK1 and CaMKII. […] Next we studied the corresponding 13- and 23-mer GluN2A peptides, N2A13 (4, GluN2A1280–1292, […]) and N2A23 (5, GluN2A1280–1302, […]); for both, Ser1291 corresponds to Ser1303 in GluN2B.

Test [2] relates to CAMKII. As to the kind of experiment: In vitro phosphorylation assay with CaMKII (analytical HPLC). In kind it is biochemical. The conditions noted are these: peptide 50 μM, ATP 100 μM, n=3. How it is done: as §1, §2
For test [3], the target named is T1, DAPK1. The experiment in a line: Caliper microfluidics capillary electrophoresis high-throughput enzymatic assay for DAPK1. In kind it is biochemical.
Text: For this, we established a high-throughput enzymatic screening assay for DAPK1. […] This peptide was used in a Caliper microfluidics capillary electrophoresis assay, which separates phosphorylated peptide product from the non-phosphorylated peptides in microcapillaries. The fluorescently labeled peptide enabled quantification in real time and thus determination of reaction velocities.
The target of test [4] is PIM1 (Homo sapiens, UniProt P11309). As to the kind of experiment: Kinase selectivity screening, PIM1. In kind it is biochemical. The protocol: (§3) Compound 6 was tested in primary screening against a number of other kinases (SRC, BLK, AKT3, JAK2, PAK4, PAK7, PIM1, PIM2, CAMKI, and CAMKII); 60 % inhibition at 10 μM compound was used as the cut-off limit. […] Thus 6 was clearly an interesting compound.
Chain of PIM1 (P11309 whole entry, species assumed): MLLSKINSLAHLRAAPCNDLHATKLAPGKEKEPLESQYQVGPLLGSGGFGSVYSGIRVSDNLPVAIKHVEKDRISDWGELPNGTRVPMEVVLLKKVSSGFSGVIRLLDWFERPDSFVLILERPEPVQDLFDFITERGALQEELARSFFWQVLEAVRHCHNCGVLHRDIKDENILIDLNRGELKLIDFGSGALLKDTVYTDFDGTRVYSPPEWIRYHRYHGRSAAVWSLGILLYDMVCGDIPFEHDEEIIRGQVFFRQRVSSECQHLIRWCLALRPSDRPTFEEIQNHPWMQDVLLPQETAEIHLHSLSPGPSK

Test [5] addresses JAK2 (Homo sapiens, UniProt O60674). The experiment in a line: Kinase selectivity screening, JAK2. It counts as biochemical. How it is done:
as §3

The target in test [6] is PAK7 (Homo sapiens, UniProt Q9P286). The experiment in a line: Kinase selectivity screening, PAK7. In kind it is biochemical. The protocol:
as §3

Test [7] addresses SRC (Homo sapiens, UniProt P12931). As to the kind of experiment: Kinase selectivity screening, SRC. It counts as biochemical. How it is done: as §3
In test [8] the test system is CAMKII. The experiment in a line: Kinase selectivity primary screening, CAMKII. The conditions noted are these: 60 % inhibition at 10 μM compound as cut-off limit. In kind it is biochemical. How it is done: as §3
Test [9] concerns the target T2, catalytic domain of DAPK1 (residues 1–285) (Homo sapiens, UniProt P53355).
T2 construct: First the catalytic domain of DAPK1 (residues 1–285) was cloned,[14] expressed in Escherichia coli, and purified; made in house; host or cells: Escherichia coli
The experiment in a line: Isothermal titration calorimetry (ITC). It counts as binding. The note with it: n=4, read-out: equilibrium dissociation constant (Kd). The protocol: as §3
Figure 3 Representative ITC of the catalytic domain of DAPK1 (residues 1–285) into 6.

“Also recorded” adds a separate entry of the source.

T1 sequence (P53355 1-285): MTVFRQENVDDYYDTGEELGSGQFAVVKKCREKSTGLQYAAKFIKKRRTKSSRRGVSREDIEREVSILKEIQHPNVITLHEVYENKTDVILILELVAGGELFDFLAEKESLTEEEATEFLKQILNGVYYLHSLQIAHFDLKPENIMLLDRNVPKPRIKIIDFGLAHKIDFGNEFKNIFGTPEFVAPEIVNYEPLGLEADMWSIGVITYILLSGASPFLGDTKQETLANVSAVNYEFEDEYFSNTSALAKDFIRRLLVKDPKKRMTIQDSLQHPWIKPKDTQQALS
T2 sequence (P53355 1-285): as above
Chain of SRC (P12931 whole entry, species assumed): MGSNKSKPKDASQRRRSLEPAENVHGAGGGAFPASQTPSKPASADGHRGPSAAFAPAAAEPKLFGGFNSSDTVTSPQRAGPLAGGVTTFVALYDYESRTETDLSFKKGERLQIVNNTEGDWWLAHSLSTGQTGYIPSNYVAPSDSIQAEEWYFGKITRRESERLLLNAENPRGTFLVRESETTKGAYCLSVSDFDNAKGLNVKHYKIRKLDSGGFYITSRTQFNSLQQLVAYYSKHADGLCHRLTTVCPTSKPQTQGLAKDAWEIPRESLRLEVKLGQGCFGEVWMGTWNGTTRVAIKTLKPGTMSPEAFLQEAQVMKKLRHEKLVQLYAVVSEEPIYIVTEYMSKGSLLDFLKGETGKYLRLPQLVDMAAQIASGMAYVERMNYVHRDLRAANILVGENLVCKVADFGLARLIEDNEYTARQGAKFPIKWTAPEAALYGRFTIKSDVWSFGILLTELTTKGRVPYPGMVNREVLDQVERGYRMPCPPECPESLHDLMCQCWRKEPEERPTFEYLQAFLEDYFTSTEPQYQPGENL
Chain of PAK7 (Q9P286 whole entry, species assumed): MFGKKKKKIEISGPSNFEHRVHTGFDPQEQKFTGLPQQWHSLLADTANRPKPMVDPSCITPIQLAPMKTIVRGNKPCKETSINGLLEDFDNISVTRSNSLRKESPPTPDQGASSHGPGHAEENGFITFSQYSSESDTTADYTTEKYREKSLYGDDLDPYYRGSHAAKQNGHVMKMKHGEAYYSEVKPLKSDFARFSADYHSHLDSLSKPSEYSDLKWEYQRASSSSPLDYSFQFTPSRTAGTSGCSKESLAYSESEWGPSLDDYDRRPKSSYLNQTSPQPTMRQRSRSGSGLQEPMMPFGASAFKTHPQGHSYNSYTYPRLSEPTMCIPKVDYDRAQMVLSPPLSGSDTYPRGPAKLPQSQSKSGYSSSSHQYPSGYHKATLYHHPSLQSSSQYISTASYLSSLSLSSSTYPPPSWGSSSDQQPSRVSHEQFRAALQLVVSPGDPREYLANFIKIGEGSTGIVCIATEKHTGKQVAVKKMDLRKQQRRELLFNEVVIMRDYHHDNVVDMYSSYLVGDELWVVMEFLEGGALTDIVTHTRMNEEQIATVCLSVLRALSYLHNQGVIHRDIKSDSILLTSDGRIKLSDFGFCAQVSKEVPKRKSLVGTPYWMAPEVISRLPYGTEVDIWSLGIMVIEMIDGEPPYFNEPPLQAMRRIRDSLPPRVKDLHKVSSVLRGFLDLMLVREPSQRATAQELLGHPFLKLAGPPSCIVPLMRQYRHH
Chain of JAK2 (O60674 whole entry, species assumed): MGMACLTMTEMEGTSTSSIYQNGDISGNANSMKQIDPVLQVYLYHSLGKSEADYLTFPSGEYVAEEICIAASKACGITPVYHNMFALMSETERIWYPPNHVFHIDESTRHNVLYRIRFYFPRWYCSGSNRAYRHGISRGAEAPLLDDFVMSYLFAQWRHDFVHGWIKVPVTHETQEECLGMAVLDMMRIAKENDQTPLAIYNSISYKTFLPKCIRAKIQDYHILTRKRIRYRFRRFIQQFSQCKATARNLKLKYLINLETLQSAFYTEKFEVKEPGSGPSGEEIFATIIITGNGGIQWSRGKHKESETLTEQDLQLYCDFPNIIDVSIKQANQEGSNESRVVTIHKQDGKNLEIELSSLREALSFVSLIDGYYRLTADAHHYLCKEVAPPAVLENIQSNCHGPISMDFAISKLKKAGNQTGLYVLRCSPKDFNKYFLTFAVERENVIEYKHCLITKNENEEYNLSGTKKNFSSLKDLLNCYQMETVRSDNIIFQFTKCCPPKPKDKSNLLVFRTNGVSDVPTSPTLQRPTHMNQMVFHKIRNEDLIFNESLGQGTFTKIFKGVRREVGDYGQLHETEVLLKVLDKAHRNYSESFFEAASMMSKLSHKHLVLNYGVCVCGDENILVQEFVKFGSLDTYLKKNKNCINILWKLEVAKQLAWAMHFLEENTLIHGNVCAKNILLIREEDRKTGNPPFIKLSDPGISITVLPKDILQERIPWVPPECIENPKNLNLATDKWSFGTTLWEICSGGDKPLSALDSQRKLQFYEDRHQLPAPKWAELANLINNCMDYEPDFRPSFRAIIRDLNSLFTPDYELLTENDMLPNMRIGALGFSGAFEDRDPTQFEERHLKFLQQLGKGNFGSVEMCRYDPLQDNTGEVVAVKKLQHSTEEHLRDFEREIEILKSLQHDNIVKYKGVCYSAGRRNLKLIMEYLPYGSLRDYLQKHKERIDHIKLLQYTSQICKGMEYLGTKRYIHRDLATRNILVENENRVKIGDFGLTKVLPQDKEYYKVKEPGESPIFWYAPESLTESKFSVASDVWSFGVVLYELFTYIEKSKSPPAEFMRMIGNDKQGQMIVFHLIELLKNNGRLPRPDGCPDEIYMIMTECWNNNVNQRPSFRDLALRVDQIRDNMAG

On to “QKNKLRISRQHSYDNIVDKPREL [Peptide 5, 23-mer GluN2A peptide]”, for which the “phosphorylation by DAPK1 (peptide as substrate)” value (from here on “phosphorylation by DAPK1”) in test [1] is listed as “none of these peptides was phosphorylated”. Besides, the “phosphorylation by CaMKII (peptide as substrate)” value (shortened to “phosphorylation by CaMKII”) in test [2] is “phosphorylated at a similar rate and to the same degree as the control peptide”.

As to “KKNRNKLRQHSY [Peptide 1, 13-mer peptide N2B13, GluN2B1292–1304]”, in test [1] (DAPK1, in vitro, data not shown), the “inhibitory effect on phosphorylation of peptide 2” value is on record as “no in vitro inhibitory effect; also recorded: did not observe any effect”. Moreover, in test [1], the “phosphorylation by DAPK1” value is reported as “strongly repressed”. Moreover, the “phosphorylation by CaMKII” value in test [2] is reported as “phosphorylated in a similar manner”.

Regarding `COc1cc(-c2ccc3ncc(-c4cccc(C(=O)NCCN(C)C)c4)n3n2)ccc1O` [Compound 6], the IC50 in test [3] (DAPK1, Caliper assay, 5FAM-Peptide38 substrate, ATP approximately 2×Km) came to 247 nM; in test [4] it was 1600 nM; in test [5], 1800 nM; in test [6] it was 5600 nM; in [7], 150 nM. Further, in test [8], the primary screening result was “did not to pass the primary screening”. For the same compound, the equilibrium dissociation constant (Kd) in test [9] is 240 ± 90 nM. In addition, the “inhibition in the in vitro phosphorylation assay” value in [1] (DAPK1) is “showed inhibition”.

With “KKNRKKNRNKLRRQHSYDTFVDLQKEE [Peptide 2, 23-mer GluN2B peptide with ten additional C-terminal amino acids]”, in [1], the “phosphorylation by DAPK1” value is on record as “phosphorylation to a degree similar to that for the reference substrate”. In addition, in [2], the “phosphorylation by CaMKII” value is recorded as “neither the longer GluN2B peptide, N2B23 (2), nor its Ala mutant, 3, was phosphorylated”.

Take “KKRPQRRYSNVF [peptide38, reference compound]”: in [1], the “phosphorylation by DAPK1” value is recorded as “excellent substrate”.

With “KKNRKKNRNKLRRQHAYDTFVDLQKEE [Peptide 3, N2B23 with Ser1303 substituted with Ala]”, the “phosphorylation by DAPK1” value in test [1] is listed as “prevented phosphorylation”. For the same compound, the “phosphorylation by CaMKII” value in test [2] is “neither the longer GluN2B peptide, N2B23 (2), nor its Ala mutant, 3, was phosphorylated”.

On to “QKNKLRISRQHSY [Peptide 4, 13-mer GluN2A peptide]”, for which, in test [1], the “phosphorylation by DAPK1” value is “none of these peptides was phosphorylated”. Moreover, the “phosphorylation by CaMKII” value in test [2] was “phosphorylated at a similar rate and to the same degree as the control peptide”.

As for `Nc1ncnc2c1ncn2[C@@H]1O[C@H](COP(=O)(O)OP(=O)(O)OP(=O)(O)O)[C@@H](O)[C@H]1O` [ATP], the Michaelis-Menten constant (Km) in [3] (DAPK1, read-out: Km for ATP) is 1.24 µM.
